Experimental data reported in patent publication US20230203043A1, “NOVEL IMIDAZOPYRAZINE DERIVATIVES” (Hoffmann-La Roche Inc., priority 2020, published 2023).
Structures can show the parent of a compound that is named as a salt. Where two headings read alike, the source gives them in different places.

Tested on: Acinetobacter baumannii ATCC17961
Assay: Antimicrobial susceptibility testing: 90% growth inhibitory concentration (IC90) determination in Iso-Sensitest broth, OD600 growth
Format: cell-based
Details: Acinetobacter baumannii, ATCC17961, 16 h
Procedure, shortened: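 Serial twofold dilution, 10 points, e.g. 50–0.097 μM final; ~5×10^(5) CFU/ml; 35±2° C, 16 h; kinetic OD600 every 20 min; IC90 from log-phase inhibition.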

[1] = read-out: A. baumannii ATCC 17961 IC90 (uM), strain ATCC 17961, OD600 growth over 16 h
[2] = strain ATCC 17961, OD600 growth over 16 h, read-out: A. baumannii ATCC 17961 IC90

SMILES	IC90 [1]	IC90 [2]
CCc1cc(Nc2nccn3c(-c4cn(Cc5nccn5C)nc4C(F)(F)F)cnc23)ccc1C(=O)NCCCNCCCCNCCCN [Example 84, N-[3-[4-(3-aminopropylamino)butylamino]propyl]-2-ethyl-4-[[3-[1-[(1-methylimidazol-2-yl)methyl]-3-(trifluoromethyl)pyrazol-4-yl]imidazo[1,2-a]pyrazin-8-yl]amino]benzamide hydrochloride]	2.98 µM	–
C#CCNCCCNC(=O)c1c(C)cc(Nc2nccn3c(-c4c[nH]nc4C(F)(F)F)cnc23)cc1F [Example 85, 2-fluoro-6-methyl-N-[3-(prop-2-ynylamino)propyl]-4-[[3-[3-(trifluoromethyl)-1H-pyrazol-4-yl]imidazo[1,2-a]pyrazin-8-yl]amino]benzamide]	–	3.26 µM
Cc1cc(Nc2nccn3c(-c4c[nH]nc4C(F)(F)F)cnc23)cc(F)c1C(=O)N1CCNCC1 [Example 86, [2-fluoro-6-methyl-4-[[3-[3-(trifluoromethyl)-1H-pyrazol-4-yl]imidazo[1,2-a]pyrazin-8-yl]amino]phenyl]-piperazin-1-ylmethanone]	–	3.38 µM
NC12CC(NC(=O)c3ccc(Nc4nccn5c(-c6cn(CC(F)F)nc6C(F)(F)F)cnc45)cc3Cl)(C1)C2 [Example 87, N-(3-amino-1-bicyclo[1.1.1]pentanyl)-2-chloro-4-[[3-[1-(2,2-difluoroethyl)-3-(trifluoromethyl)pyrazol-4-yl]imidazo[1,2-a]pyrazin-8-yl]amino]benzamide]	–	0.359 µM
N#CCn1cc(-c2cnc3c(Nc4ccc(C(=O)NC56CC(N)(C5)C6)c(Cl)c4)nccn23)c(C(F)(F)F)n1 [Example 88, N-(3-amino-1-bicyclo[1.1.1]pentanyl)-2-chloro-4-[[3-[1-(cyanomethyl)-3-(trifluoromethyl)pyrazol-4-yl]imidazo[1,2-a]pyrazin-8-yl]amino]benzamide]	–	0.431 µM
CC#CCn1cc(-c2cnc3c(Nc4ccc(C(=O)NCC(=O)NCCN)c(Cl)c4)nccn23)c(C(F)(F)F)n1 [Example 89, N-[2-(2-aminoethylamino)-2-oxoethyl]-4-[[3-[1-but-2-ynyl-3-(trifluoromethyl)pyrazol-4-yl]imidazo[1,2-a]pyrazin-8-yl]amino]-2-chlorobenzamide formate]	0.573 µM	–
C[C@@H](NC(=O)c1ccc(Nc2nccn3c(-c4c[nH]nc4C(F)(F)F)cnc23)cc1Cl)C(=O)N1CCC(N)CC1 [Example 90, N-[(2R)-1-(4-aminopiperidin-1-yl)-1-oxopropan-2-yl]-2-chloro-4-[[3-[3-(trifluoromethyl)-1H-pyrazol-4-yl]imidazo[1,2-a]pyrazin-8-yl]amino]benzamide formate]	0.643 µM	–
C[C@@H](NC(=O)c1ccc(Nc2nccn3c(-c4c[nH]nc4C(F)(F)F)cnc23)cc1Cl)C(=O)N1CCNCC1 [Example 91, 2-chloro-N-[(2R)-1-oxo-1-piperazin-1-ylpropan-2-yl]-4-[[3-[3-(trifluoromethyl)-1H-pyrazol-4-yl]imidazo[1,2-a]pyrazin-8-yl]amino]benzamide formate]	0.645 µM	–
C[C@@H](NC(=O)c1ccc(Nc2nccn3c(-c4c[nH]nc4C(F)(F)F)cnc23)cc1Cl)C(=O)NC1CC(N)C1 (stereo partly drawn) [Example 92, N-[(2R)-1-[(3-aminocyclobutyl)amino]-1-oxopropan-2-yl]-2-chloro-4-[[3-[3-(trifluoromethyl)-1H-pyrazol-4-yl]imidazo[1,2-a]pyrazin-8-yl]amino]benzamide formate]	0.947 µM	–
C[C@@H](NC(=O)c1ccc(Nc2nccn3c(-c4c[nH]nc4C(F)(F)F)cnc23)cc1Cl)C(=O)N[C@@H]1CCNC1 [Example 93, 2-chloro-N-[(2R)-1-oxo-1-[[(3R)-pyrrolidin-3-yl]amino]propan-2-yl]-4-[[3-[3-(trifluoromethyl)-1H-pyrazol-4-yl]imidazo[1,2-a]pyrazin-8-yl]amino]benzamide formate]	1.02 µM	–
C[C@@H](NC(=O)c1ccc(Nc2nccn3c(-c4c[nH]nc4C(F)(F)F)cnc23)cc1Cl)C(=O)N1CC[C@H](N)C1 [Example 94, N-[(2R)-1-[(3S)-3-aminopyrrolidin-1-yl]-1-oxopropan-2-yl]-2-chloro-4-[[3-[3-(trifluoromethyl)-1H-pyrazol-4-yl]imidazo[1,2-a]pyrazin-8-yl]amino]benzamide formate]	1.24 µM	–
C[C@@H](NC(=O)c1ccc(Nc2nccn3c(-c4c[nH]nc4C(F)(F)F)cnc23)cc1Cl)C(=O)NCCN [Example 95, N-[(2R)-1-(2-aminoethylamino)-1-oxopropan-2-yl]-2-chloro-4-[[3-[3-(trifluoromethyl)-1H-pyrazol-4-yl]imidazo[1,2-a]pyrazin-8-yl]amino]benzamide formate]	1.53 µM	–
C[C@@H](NC(=O)c1ccc(Nc2nccn3c(-c4c[nH]nc4C(F)(F)F)cnc23)cc1Cl)C(=O)N[C@H]1CCNC1 [Example 96, 2-chloro-N-[(2R)-1-oxo-1-[[(3S)-pyrrolidin-3-yl]amino]propan-2-yl]-4-[[3-[3-(trifluoromethyl)-1H-pyrazol-4-yl]imidazo[1,2-a]pyrazin-8-yl]amino]benzamide formate]	1.63 µM	–
C[C@@H](NC(=O)c1ccc(Nc2nccn3c(-c4c[nH]nc4C(F)(F)F)cnc23)cc1Cl)C(=O)N1CC[C@@H](N)C1 [Example 97, N-[(2R)-1-[(3R)-3-aminopyrrolidin-1-yl]-1-oxopropan-2-yl]-2-chloro-4-[[3-[3-(trifluoromethyl)-1H-pyrazol-4-yl]imidazo[1,2-a]pyrazin-8-yl]amino]benzamide formate]	1.7 µM	–
C[C@@H](NC(=O)c1ccc(Nc2nccn3c(-c4c[nH]nc4C(F)(F)F)cnc23)cc1Cl)C(=O)NCCN(C)C [Example 98, 2-chloro-N-[(2R)-1-[2-(dimethylamino)ethylamino]-1-oxopropan-2-yl]-4-[[3-[3-(trifluoromethyl)-1H-pyrazol-4-yl]imidazo[1,2-a]pyrazin-8-yl]amino]benzamide formate]	1.94 µM	–
C[C@@H](NC(=O)c1ccc(Nc2nccn3c(-c4c[nH]nc4C(F)(F)F)cnc23)cc1Cl)C(=O)N1CC(N)C1 [Example 99, N-[(2R)-1-(3-aminoazetidin-1-yl)-1-oxopropan-2-yl]-2-chloro-4-[[3-[3-(trifluoromethyl)-1H-pyrazol-4-yl]imidazo[1,2-a]pyrazin-8-yl]amino]benzamide formate]	2.08 µM	–
N#CCn1cc(-c2cnc3c(Nc4ccc(C(=O)N5CC(N)C5)c(Cl)c4)nccn23)c(C(F)(F)F)n1 [Example 100, 2-[4-[8-[4-(3-aminoazetidine-1-carbonyl)-3-chloroanilino]imidazo[1,2-a]pyrazin-3-yl]-3-(trifluoromethyl)pyrazol-1-yl]acetonitrile]	–	0.1 µM
N#CCn1cc(-c2cnc3c(Nc4ccc(C(=O)N5CC6(CNC6)C5)c(Cl)c4)nccn23)c(C(F)(F)F)n1 [Example 102, 2-[4-[8-[3-chloro-4-(2,6-diazaspiro[3.3]heptane-2-carbonyl)anilino]imidazo[1,2-a]pyrazin-3-yl]-3-(trifluoromethyl)pyrazol-1-yl]acetonitrile]	–	0.18 µM
NC1CCN(C(=O)c2ccc(Nc3nccn4c(-c5cn(CC(F)F)nc5C(F)(F)F)cnc34)cc2Cl)CC1 [Example 103, (4-aminopiperidin-1-yl)-[2-chloro-4-[[3-[1-(2,2-difluoroethyl)-3-(trifluoromethyl)pyrazol-4-yl]imidazo[1,2-a]pyrazin-8-yl]amino]phenyl] methanone]	–	0.195 µM
O=C(c1ccc(Nc2nccn3c(-c4cn(C(F)F)nc4C(F)(F)F)cnc23)cc1Cl)N1CCN(C(=O)[C@@H]2CCCN2)CC1 [Example 104, [2-chloro-4-[[3-[1-(difluoromethyl)-3-(trifluoromethyl)pyrazol-4-yl]imidazo[1,2-a]pyrazin-8-yl]amino]phenyl]-[4-[(2S)-pyrrolidine-2-carbonyl]piperazin-1-yl]methanone]	–	0.227 µM
NC12CC(NC(=O)c3ccc(Nc4nccn5c(-c6c[nH]nc6C(F)(F)F)cnc45)cc3Cl)(C1)C2 [Example 105, N-(3-amino-1-bicyclo[1.1.1]pentanyl)-2-chloro-4-[[3-[3-(trifluoromethyl)-1H-pyrazol-4-yl]imidazo[1,2-a]pyrazin-8-yl]amino]benzamide]	–	1.56 µM
C#CCn1cc(-c2cnc3c(Nc4ccc(C(=O)N[C@H](C)CN)c(CC)c4)nccn23)c(C(F)(F)F)n1 [Example 106, N-[(2R)-1-aminopropan-2-yl]-2-ethyl-4-[[3-[1-prop-2-ynyl-3-(trifluoromethyl)pyrazol-4-yl]imidazo[1,2-a]pyrazin-8-yl]amino]benzamide]	–	0.222 µM
CCc1cc(Nc2nccn3c(-c4cn(CC(F)F)nc4C(F)(F)F)cnc23)ccc1C(=O)N[C@H](C)CN [Example 107, N-[(2R)-1-aminopropan-2-yl]-4-[[3-[1-(2,2-difluoroethyl)-3-(trifluoromethyl)pyrazol-4-yl]imidazo[1,2-a]pyrazin-8-yl]amino]-2-ethylbenzamide]	–	0.239 µM
C=CCn1cc(-c2cnc3c(Nc4ccc(C(=O)N[C@H](C)CN)c(CC)c4)nccn23)c(C(F)(F)F)n1 [Example 108, N-[(2R)-1-aminopropan-2-yl]-2-ethyl-4-[[3-[1-prop-2-enyl-3-(trifluoromethyl)pyrazol-4-yl]imidazo[1,2-a]pyrazin-8-yl]amino]benzamide]	–	0.302 µM
CCc1cc(Nc2nccn3c(-c4cn(CC#N)nc4C(F)(F)F)cnc23)ccc1C(=O)N[C@H](C)CN [Example 109, N-[(2R)-1-aminopropan-2-yl]-4-[[3-[1-(cyanomethyl)-3-(trifluoromethyl)pyrazol-4-yl]imidazo[1,2-a]pyrazin-8-yl]amino]-2-ethylbenzamide]	–	0.333 µM
CCc1cc(Nc2nccn3c(-c4cn(CCF)nc4C(F)(F)F)cnc23)ccc1C(=O)N[C@H](C)CN [Example 110, N-[(2R)-1-aminopropan-2-yl]-2-ethyl-4-[[3-[1-(2-fluoroethyl)-3-(trifluoromethyl)pyrazol-4-yl]imidazo[1,2-a]pyrazin-8-yl]amino]benzamide]	–	0.506 µM
